Test results from PMC10093845, “Inhibitory Activities of Samples on Tyrosinases Were Affected by Enzyme Species and Sample Addition Methods” (International Journal of Molecular Sciences, 2023).
Where two headings read alike, the source gives them in different places.

Key:
B16F10 cells [1] = assay: Intracellular melanin content; format: cell-based, murine; conditions: 100 μg/mL, α-MSH stimulated B16F10 cells, 48 h
Procedure: Measurement of intracellular melanin content was determined according to our previous procedure. Briefly, Cells were cultured by complete medium containing compounds for 48 h. Then, intracellular melanin was extracted by 1 M NaOH containing 10% DMSO. The absorbance of the dissolved melanin was obtained using a microplate reader at 405 nm. The melanin content of each treatment group was calculated with the negative control group as reference.

MTYR (mushroom TYR) [2] = biological target: T1, MTYR (mushroom TYR) (Agaricus bisporus, UniProt C7FF04); assay: MTYR directly inhibitory activity; format: biochemical
T1 sequence (C7FF04 1-392): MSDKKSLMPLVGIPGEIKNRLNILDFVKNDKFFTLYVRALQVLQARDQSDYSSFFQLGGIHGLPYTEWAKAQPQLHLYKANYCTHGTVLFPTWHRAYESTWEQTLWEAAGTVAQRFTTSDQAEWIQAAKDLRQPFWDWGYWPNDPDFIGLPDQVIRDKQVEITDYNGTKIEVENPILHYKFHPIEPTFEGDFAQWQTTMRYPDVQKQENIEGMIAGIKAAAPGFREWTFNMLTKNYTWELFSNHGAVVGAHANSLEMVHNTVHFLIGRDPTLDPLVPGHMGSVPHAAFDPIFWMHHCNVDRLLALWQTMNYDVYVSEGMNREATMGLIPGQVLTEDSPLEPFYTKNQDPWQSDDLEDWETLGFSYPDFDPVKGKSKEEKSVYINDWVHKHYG
T1 sequence (G1K3P4 1-150 partner): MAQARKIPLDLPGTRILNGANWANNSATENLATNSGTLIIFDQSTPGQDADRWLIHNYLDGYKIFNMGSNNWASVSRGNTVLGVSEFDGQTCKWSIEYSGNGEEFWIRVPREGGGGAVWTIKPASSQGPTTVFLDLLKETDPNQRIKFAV
Procedure: The MTYR directly inhibitory activity was assayed according to our previous procedure. Briefly, the reaction media was 200 µL in 96-well plates. MTYR (40 µL, 30 U/mL) in PBS (20 mM, pH 6.8) was incubated with the corresponding compound (40 µL) at 25 °C for 10 min. Then, L-DOPA ([…], 8 mM) was added to each well as a substrate. The other steps and the calculation of MTYR directly inhibitory activity were the same as above method in Section 4.2.

B16F10 cells [3] = conditions: previous studies; cited from earlier work
[4] = system: ATYR (crude TYR extracted from apple); assay: ATYR indirectly inhibitory activity (apple slices soaked, then enzyme extracted); conditions: apple slices soaked in 1 mM for 10 min; water 0 ± 4% as negative control; negative = promotion
Procedure: The preparation of fresh-cut apple slices was the same as in Section 4.4. The preparation of crude ATYR was carried out by reference and slightly adjusted. […] Finally, these apple slices were used to extract ATYR. […] After the supernatant was divided, it was quick-frozen with liquid nitrogen, and then stored in the refrigerator at −80 °C. The supernatant was used for ATYR activity analysis. Apple slices, immersing in various test solutions for 10 min, were used to extract crude ATYR solution. […] The control group containing only ATYR (blank control and sample control) was set for synchronous detection to exclude background interference. With negative control as the reference, the indirectly inhibitory activity of ATYR was calculated in the same way as in Section 4.2.

BTYR mRNA = assay: qPCR analysis of TYR gene; format: cell-based, murine; conditions: 100 μg/mL, 24 h, α-MSH stimulated
Procedure: Measurement of mRNA expression of TYR was determined according to our previous procedure. […] Total RNAs prepared were followed and qPCR analysis of TYR were carried on with β-actin as an internal control.

[5] = biological target: T2, BTYR (intracellular TYR of B16F10 cells) (Mus musculus, UniProt P11344); assay: BTYR indirectly inhibitory activity in cells cultured by compounds; format: cell-based, murine
T2 construct: The lysates, called BTYR, were centrifuged at 12,000 rpm for 10 min at 4 °C; endogenous in cells; host or cells: B16F10 murine melanoma cells
T2 sequence (P11344 19-533): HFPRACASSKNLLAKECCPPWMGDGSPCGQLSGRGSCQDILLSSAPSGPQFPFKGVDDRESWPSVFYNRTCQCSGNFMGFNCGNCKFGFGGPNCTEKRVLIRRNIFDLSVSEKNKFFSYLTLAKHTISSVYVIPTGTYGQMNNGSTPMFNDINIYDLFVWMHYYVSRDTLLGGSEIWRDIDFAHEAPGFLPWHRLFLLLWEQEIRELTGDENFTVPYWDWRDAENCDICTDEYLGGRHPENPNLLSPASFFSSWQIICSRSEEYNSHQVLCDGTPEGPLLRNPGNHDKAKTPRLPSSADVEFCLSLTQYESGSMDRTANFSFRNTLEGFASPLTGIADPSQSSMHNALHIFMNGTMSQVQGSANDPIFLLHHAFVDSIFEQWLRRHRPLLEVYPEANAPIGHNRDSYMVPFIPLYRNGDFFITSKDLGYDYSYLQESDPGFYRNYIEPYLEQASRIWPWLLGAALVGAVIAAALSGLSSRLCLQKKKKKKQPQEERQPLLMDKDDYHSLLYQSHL
Procedure: Referring to our previous methods. In short, B16F10 murine melanoma cells from Stem Cell Bank (Chinese Academy of Sciences, Shanghai, China) were cultured in DMEM supplemented with 10% FBS in a humidified atmosphere of 5% CO2 at 37 °C.
The BTYR indirectly inhibitory activity was assayed according to our previous procedure with slight modification. Cells were cultured by complete medium containing compounds for 48 h and lysed by 120 μL of lysis buffer to obtain crude BTYR extract. […] The molarities of EGCG were 25, 50, 100, 125, 150, 175 and 200 μM. The treatment group without samples was negative control.
In a reaction system of 100 μL, 20 μL of BTYR was mixed with 60 μL of 8 mM L-DOPA (the remaining volume was supplemented with 20 mM pH 6.8 PBS), and immediately placed at 475 nm for dynamic detection for 30 min. The absorbance was measured once per minute. The control group containing only BTYR (blank control and sample control) was set for synchronous detection to exclude background interference.
With negative control as the reference, the indirectly inhibitory activity of BTYR was calculated in the same way as in Section 4.2.

[6] = biological target: T3, BTYR (TYR crude enzyme extract from B16F10 cells) (Mus musculus, UniProt P11344); assay: BTYR directly inhibitory activity (TYR extraction followed by sample treatment, non-cellular system); format: biochemical, murine
T3 construct: The lysates, called BTYR, were centrifuged at 12,000 rpm for 10 min at 4 °C; endogenous in cells; host or cells: B16F10 murine melanoma cells
T3 sequence (P11344 19-533): T2 sequence (P11344 19-533)
Procedure: B16F10 cells at the exponential phase in 10 cm^2 cell culture dish were washed with D-PBS two times and incubated for 30 min at −20 °C in 1.16 mL of lysis buffer. The lysates, called BTYR, were centrifuged at 12,000 rpm for 10 min at 4 °C.
The reaction system in 96-well plate was 100 μL. 20 μL of BTYR was mixed with 20 μL compounds and incubated at 25 °C for 10 min, then 60 μL of 8 mM L-DOPA was added to start the reaction. A Synergy H1 microplate reader (BioTek Instruments, Inc., Winooski, VT, USA) was used to dynamically monitor the optical densities at 475 nm. Absorbance was measured every minute and sustained 30 min. The initial velocity (v0) of each reaction was represented by the slope of the initial linear range of the progress curve, and was used to calculate the relative enzyme activity of each treatment [16].
BTYR directly inhibitory activity compared to negative control could be expressed by following formula [16]. Δsample = sample − sample control, Δcontrol = negative control − blank control(1) kΔsample = (Δsamplet1 − Δsamplet0)/(t1 − t0), kΔcontrol = (Δcontrolt1 − Δcontrolt0)/(t1 − t0)(2) (3) BTYR direct inhibition %=1−kΔsample/kΔcontrol×100 […]

B16F10 cells [7] = assay: Cell viability (CCK-8); format: cell-based, murine
Procedure: (§1) Referring to our previous methods. […] Measurement of cell viability was determined according to our previous procedure. In brief, cells were seeded into 96-well plates at a density of 1 × 10^4 cells/well and incubated for 24 h. Then, the culture medium was replaced with complete medium containing compound and further incubated at 37 °C for 48 h. After rinsing once with D-PBS, 100 µL DMEM containing 10% CCK-8 was added to each well. Followed by another 1 h incubation, the absorbance at 450 nm was measured. […] The cell viability was expressed as a percentage of the control.

[8] = system: ATYR (crude TYR extracted from apple); assay: ATYR directly inhibitory activity; format: biochemical; conditions: for IC50: sample in direct contact with ATYR, kojic acid inhibits only at high concentration (800–4000 µM)
Procedure: The preparation of fresh-cut apple slices was the same as in Section 4.4. The preparation of crude ATYR was carried out by reference and slightly adjusted. […] Finally, these apple slices were used to extract ATYR. […] After the supernatant was divided, it was quick-frozen with liquid nitrogen, and then stored in the refrigerator at −80 °C. The supernatant was used for ATYR activity analysis. In a reaction system of 200 μL, 40 µL ATYR was mixed with 40 µL corresponding compound in 96-well plates. After incubated at 25 °C for 10 min, L-DOPA (120 µL, 8 mM) was added to each well as a substrate. Once the substrate was added in reaction system, the formation of dopachrome was immediately measured at 475 nm for 30 min at 1 min intervals. […] The group setting and the calculation of ATYR directly inhibitory activity were the same as in Section 4.2.

MTYR (mushroom TYR) [9] = biological target: T1, MTYR (mushroom TYR); assay: Kinetic analysis of MTYR (Lineweaver-Burk); format: biochemical; conditions: L-DOPA substrate
Procedure: The experimental method was the same as Section 4.8, except for the substrate concentration and compound concentration. A series of experiments were performed to determine the type of inhibition.
The molarities of L-DOPA were 0.0625, 0.25, 1, 4 and 8 mM. […] The Km and Vmax of MTYR were determined by the Michaelis–Menten equation. The Lineweaver–Burk plot was used to display the data. Secondary replot of Lineweaver–Burk plot or intercept was used to display inhibition constant (Ki) and α.

MTYR = conditions: cited from earlier work
HTYR = conditions: cited from earlier work
Cell viability (CCK-8) = format: cell-based, murine; conditions: mouse, B16F10 melanoma cells, 48 h
Procedure: as §1

HMV-II = system: HMV-II; parameters: method as in PMID 15056856; conditions: concentration lower than 1 mM; cited from earlier work

With `O=C(O[C@@H]1Cc2c(O)cc(O)cc2O[C@@H]1c1cc(O)c(O)c(O)c1)c1cc(O)c(O)c(O)c1` [EGCG, Epigallocatechin gallate] the intracellular melanin content (B16F10 cells [1]) was “significantly reduce”, the IC50 (MTYR (mushroom TYR) [2]; L-DOPA substrate) was 1420 ± 61 µM and the “MTYR directly inhibitory activity relative to kojic acid” value (MTYR (mushroom TYR) [2]; ratio of IC50) was 1/15. For the same molecule, the “concentration significantly reducing melanin content of B16F10 cells in a dose-dependent manner” value (B16F10 cells [3]) was 55 to 218 µM, the “ATYR indirectly inhibitory activity” value [4] was −7 ± 7% and the “mRNA expression of BTYR in cells” value (BTYR mRNA) was “significantly inhibit”. For the same molecule, the “intracellular BTYR activity” value ([5]; 100 μg/mL, α-MSH stimulated B16F10 cells, 48 h) was “inhibit intracellular BTYR activity”, the IC50 ([5]; cells cultured with compound 48 h, then TYR extracted) was 195 ± 3 µM and the “catalytic activity of BTYR in non-cellular system” value ([6]; 100 μg/mL) was “could not”. The “BTYR direct inhibition rate” value ([6]; 0.025–2.4 mM EGCG) was under 50%, the “Cell Viability (%)” value (B16F10 cells [7]; 25 µM, 48 h) was 100 ± 2% and the “Cell Viability (%)” value (B16F10 cells [7]; 50 µM, 48 h) was 98 ± 2%. The “Cell Viability (%)” value (B16F10 cells [7]; 100 µM, 48 h) was 95 ± 6%, the “Cell Viability (%)” value (B16F10 cells [7]; 200 µM, 48 h) was 106 ± 1% and the “Cell Viability (%)” value (B16F10 cells [7]; 400 µM, 48 h) was 66 ± 4%. The “Cell Viability (%)” value (B16F10 cells [7]; 600 µM, 48 h) was 4 ± 0%, the “Cell Viability (%)” value (B16F10 cells [7]; 800 µM, 48 h) was 2 ± 1% and the “Cell Viability (%)” value (B16F10 cells [7]; 1000 µM, 48 h) was 1 ± 1%. For the same molecule, the “Cell Viability (%)” value (B16F10 cells [7]; 1200 µM, 48 h) was −1 ± 0%, the IC50 [8] was 1770 ± 20 µM and the Inhibition type (MTYR (mushroom TYR) [9]) was “competitive”. For the same molecule, the “Km (change with increasing compound molarity)” value (MTYR (mushroom TYR) [9]) was “increasing”, the “Vmax (change with increasing compound molarity)” value (MTYR (mushroom TYR) [9]) was “constant” and the Ki (MTYR (mushroom TYR) [9]; replot of Lineweaver–Burk slopes) was 170 µM.
In the case of `Oc1ccc(O)cc1` [hydroquinone], the IC50 (MTYR; read-out: IC50 on MTYR) is listed as 1.1 µM, the “activity on HTYR relative to that on MTYR” value (HTYR) is listed as 1/4000 and the IC50 (HTYR; read-out: IC50 on HTYR) is listed as 4400 µM.
In the case of `O=c1cc(CO)occ1O` [kojic acid], the intracellular melanin content (B16F10 cells [1]) is listed as “significantly reduce”, the “concentration significantly reducing melanin content of B16F10 cells in a dose-dependent manner” value (B16F10 cells [3]) is listed as 175 to 700 µM and the “ATYR indirectly inhibitory activity” value [4] is listed as −71 ± 4%. For the same molecule, the “mRNA expression of BTYR in cells” value (BTYR mRNA) was “significantly inhibit”, the viability at 48 h, 25 µM (Cell viability (CCK-8); 25 µM) was 100 ± 4% and the viability at 48 h, 50 µM (Cell viability (CCK-8); 50 µM) was 101 ± 2%. For the same molecule, the viability at 48 h, 100 µM (Cell viability (CCK-8); 100 µM) was 95 ± 1%, the viability at 48 h, 200 µM (Cell viability (CCK-8); 200 µM) was 90 ± 3% and the viability at 48 h, 400 µM (Cell viability (CCK-8); 400 µM) was 90 ± 3%. It also gave a viability at 48 h, 600 µM (Cell viability (CCK-8); 600 µM) of 96 ± 5%, a viability at 48 h, 800 µM (Cell viability (CCK-8); 800 µM) of 99 ± 4% and an EC50 ([8]; low concentration (12.5–400 µM) of kojic acid, read-out: EC50, promotion of ATYR activity) of 96 ± 4 µM. The IC50 [8] was 2110 ± 20 µM.
For `OC[C@H]1O[C@H](Oc2ccc(O)cc2)[C@H](O)[C@@H](O)[C@@H]1O` [α-arbutin], the “inhibition of the diphenolase activity of MTYR” value (MTYR) is listed as “could not inhibit” and the “effect on growth of HMV-II” value (HMV-II) is listed as “did not inhibit the growth”.
In the case of `OC[C@H]1O[C@@H](Oc2ccc(O)cc2)[C@H](O)[C@@H](O)[C@@H]1O` [β-arbutin], the “concentration significantly reducing melanin content of B16F10 cells in a dose-dependent manner” value (B16F10 cells [3]) is listed as 43.8 to 700 µM, the “ATYR indirectly inhibitory activity” value [4] is listed as 80 ± 0% and the IC50 (MTYR; read-out: IC50, diphenolase activity of MTYR) is listed as 8400 µM. For the same molecule, the “Cell Viability (%)” value (B16F10 cells [7]; 25 µM) was 108 ± 2%, the “Cell Viability (%)” value (B16F10 cells [7]; 50 µM) was 115 ± 4% and the “Cell Viability (%)” value (B16F10 cells [7]; 100 µM) was 125 ± 2%. For the same molecule, the “Cell Viability (%)” value (B16F10 cells [7]; 200 µM) was 138 ± 3%, the “Cell Viability (%)” value (B16F10 cells [7]; 400 µM) was 171 ± 1% and the “Cell Viability (%)” value (B16F10 cells [7]; 600 µM) was 195 ± 3%. For the same molecule, the “Cell Viability (%)” value (B16F10 cells [7]; 800 µM) was 206 ± 0%, the “Cell Viability (%)” value (B16F10 cells [7]; 1000 µM) was 211 ± 1% and the “Cell Viability (%)” value (B16F10 cells [7]; 1200 µM) was 222 ± 2%. The “promotion of ATYR activity (max)” value ([8]; 0.025–320 mM β-arbutin, direct) was at most 21%.
